Data on two substances can be found in PMC8808565 (iScience, 2022).

Series [1] concerns various viruses, including coronaviruses. To be noted: ref Kim et al., 2018; cited from earlier work.
For series [2] the following is noted: ref Koeninger et al., 2020; cited from earlier work.
For series [3] the following is noted: cationic, 41 amino acids; ref Sawai et al., 2001; cited from earlier work.
The next series has as its system His-tagged rRBD. It is filed as binding, SARS-CoV-2.
Another series relates to RBD:ACE2 binding. Format: cell-based, SARS-CoV-2 RBD; human ACE2.
Series [4] has as its system CoV-2 spike-pseudotyped virus infection of ACE2-expressing HEK 293T cells. It is filed as cell-based, SARS-CoV-2 (spike pseudotyped lentivirus); human cells.
Series [5] deals with recombinant SARS-CoV-2 spike receptor-binding domain (rRBD). Briefly: Surface plasmon resonance. As to conditions: read-out: KD (abstract, rounded).
For series [6], the system named is VSVG-pseudotyped virus infection of ACE2-expressing HEK 293T cells. It is filed as cell-based.
For a further series, the system named is RBD. To be noted: bilayer interferometry; ref Wang et al., 2021a; cited from earlier work.

“Also recorded” adds a separate entry of the source. No end group written: not given here.

Usually Kd stands for a measure of binding affinity in units of concentration. Regarding “GIGDPVTCLKSGAICHPVFCPRRYKQIGTCGLPGTKCCKKP (disulfide (positions not given here)) [hBD-2, Human beta defensin 2]”, the “antiviral effect (in words)” value in series [1] is “interrupt viral infection of various viruses, including coronaviruses”. Moreover, in [2], the “concentration at which hemolytic activity begins” value was 70 µM. In addition, the charge entry in series [3] was “+6”. In the series with His-tagged rRBD, the “co-precipitation with His-RBD (in words)” value is on record as “significant binding of hBD-2 to His-RBD”. Also, the “effect on RBD:ACE2 binding (in words)” value in the series with RBD:ACE2 binding was “preventing it from binding to ACE2-expressing cells; also recorded: competitively decreased RBD-ACE2 binding; also recorded: reduced RBD:ACE2 binding; also recorded: blocks spike-RBD:ACE2 binding”. Further, the “effect on CoV-2 spike-mediated infection (in words)” value in series [4] was “dose-dependently decreased entry of CoV-2 spike-mediated infection; also recorded: inhibited viral entry into ACE2-expressing HEK 293T cells in a dose-dependent manner”. Moreover, the “ratio of hemolytic concentration to IC50” value in “Hemolytic activity” was found to be 25 times. For the same substance, the Kd in series [5] is around 2000 nM. In addition, in series [6], the “inhibition of VSVG-pseudotyped virus infection (in words)” value was “not VSVG-mediated infection; also recorded: no inhibition”.
In the case of LL-37, the “binding interaction with RBD (in words)” value with RBD is reported as “strong binding interaction”.
